Measured values published in article PMC7125190, “Native/citrullinated LL37-specific T-cells help autoantibody production in Systemic Lupus Erythematosus” (Scientific Reports, 2020).

How the values were obtained:
pDCs = assay: Stimulation of pDCs (IFN-α ELISA); type: cell-based; conditions: peptide premixed with human genomic DNA 10 µg/mL, 24 hours, Fig. S4B
Excerpt: Buffy coats of HD were from Centro Trasfusionale, Policlinico Umberto I, Rome, IT. After separation of mononuclear cells by Ficoll centrifugation, pDCs were purified as described[9],[10], by using the Diamond Plasmacytoid Dendritic Cell Isolation Kit (Miltenyi Biotec) to obtain 99% purity.
Antibodies and reagents for flow cytometry, confocal microscopy and immunohistochemistry Antibodies to CD4, CD8, CD3, conjugated with various fluorochromes [FITC, phycoerythrin (PE), peridinin-chlorophyll-protein (PerCp), allophycocyanin (APC), PE-Cy7] were from BD Biosciences or eBiosciences (San Diego, CA). For further LL37-specific T-cell characterization, FITC-, APC-, PE-, PerCp-, PerCpCy5.5-, APC-Cy7-, AlexaFluor488-conjugated CCR6, -CLA, -CXCR5 (FAB190), PD1, -ICOS, -CD38, CD19, CD20, CD27, CD138 antibodies were purchased from BD Biosciences, eBiosciences, Novus Biologicals (Littleton, CO), R&D (Minneapolis, MN), Invitrogen Life Technologies. […]
Purified pDCs were seeded into 96-well round-bottom plates at 3.5/5 × 10^4 cells per well in 200 μl RPMI 1640 (GIBCO), supplemented with 15% fetal calf serum (FCS), 1% Hepes and 1% sodium piruvate. […] IFN-α in supernatants was measured by enzyme linked immunosorbent assay (ELISA) (MabTech, France) after 24 hours. […]

CD3+CD4+ T-cells = assay: T-cell proliferation assay (BrdU incorporation of PBMC); type: cell-based, human; conditions: for CLE patients whose CD3+CD4+ cells proliferated: CLE PBMC; for CLE patients whose CD3+CD4+ cells proliferated / SLE patients whose CD3+CD4+ cells proliferated: day 6, BrdU; for CLE patients whose CD3+CD4+ cells proliferated / PSO patients whose T-cells responded / RA patients whose T-cells proliferated / SLE patients whose CD3+CD4+ cells proliferated: positive if SI ≥3; for T-cell proliferation in HD/SSc: HD (LL37, cit-LL37) and SSc (LL37) PBMC; for PSO patients whose T-cells responded: PSO PBMC, ten of twenty-nine (LL37), 3 of 21 (cit-LL37); for PSO patients whose T-cells responded / RA patients whose T-cells proliferated: BrdU; for RA patients whose T-cells proliferated: RA PBMC, two of 15; for SLE patients whose CD3+CD4+ cells proliferated: SLE PBMC, 18 of 40 (LL37), 11 of 25 (cit-LL37); for Change of T-cell response on follow-up: eight SLE patients, up to 36 months of successful standard therapy, statistically significant for native LL37; for Proliferative response in LL37-non-responders: three SLE LL37-non-responders
Description: PBMCs were purified, from EDTA-treated blood, on Ficoll-Hypaque (Pharmacia Fine Chemicals, Uppsala, Sweden) were incubated (10^5 cells/well) in 96-well-flat-bottom-microplates (BD) in T cell- […]
penicillin, and 100 μg/mL streptomycin), with/without peptides. We performed assays on fresh cells, within 1-to-3 hours from collection, or on PBMCs frozen in 90% FCS-10%DMSO, whose viability we assessed by Trypan blue exclusion, at inverted microscope.
At day3 and 5, BrdU was added (1 μg/mL). BrdU-incorporation was detected by APC-labeled anti-BrdU antibody (BD Pharmingen), after surface staining by flow cytometry. Internal control for T-cell viability and proliferation was PHA treatment (2 μg/mL). SI for proliferation was calculated by dividing percent of BrdU-staining in the presence of each peptide used to stimulate cells by percent of BrdU-staining in the absence of peptide stimulation. SI for proliferation was considered positive when>3. This cut-off was obtained by calculating the mean+2DS [1.5 + 2 (0.6)] (of the stimulation indexes calculated as above) of the proliferation of HD.
Basal % of proliferation was set using, as reference, an isotype matched antibody staining (APC- […]
Assays were repeated twice with each patient. In rare cases in which background proliferation exceed antigen-specific proliferation the assay was repeated three times. Concomitant phenotype analysis of LL37-responder T-cells included staining for CD4, CD8, CXCR5, PD1, ICOS, CCR6. […]

Row | Substance | adjuvant activity for DCs (pDCs) | CLE patients whose CD3+CD4+ cells proliferated (CD3+CD4+ T-cells) | T-cell proliferation in HD/SSc (CD3+CD4+ T-cells) | PSO patients whose T-cells responded (CD3+CD4+ T-cells) [%] | RA patients whose T-cells proliferated (CD3+CD4+ T-cells) [%] | SLE patients whose CD3+CD4+ cells proliferated (CD3+CD4+ T-cells) [%] | Proliferative response at remission (CD3+CD4+ T-cells; SLE at remission (T1), only at the highest dose) | Proliferative response at lower antigen dose, cit-LL37 versus native (CD3+CD4+ T-cells; SLE, low dose 1 μg/mL, 12 LL37/cit-LL37 responders) | Change of T-cell response on follow-up (CD3+CD4+ T-cells) | Proliferative response in LL37-non-responders (CD3+CD4+ T-cells)
1 | LLGDFFR(cit)KSKEKIGKEFKR(cit)IVQR(cit)IKDFLR(cit)NLVPR(cit)TES [cit-LL37, citrullinated LL37 (citrullinated at all five arginin positions)] | completely devoid of adjuvant activity for DCs | 3 of 5 | no responses in HD | 14 | 13 | 44 | still significant only in response to cit-LL37 | T-cells responded better to cit-LL37 than the native counterpart at lower antigen doses | decreased | no proliferation
2 | LLGDFFRKSKEKIGKEFKRIVQRIKDFLRNLVPRTES [LL37, native LL37, antimicrobial peptide, 37 aa] |  | three of five | No SSc or HD showed a significant response | 34 | 13 | 45 |  |  | decreased | no proliferation
